Like-named read-outs stand apart in the source and are kept apart here.
Experiments:
[1] = system: AD patients; conditions: 1-2 mg/kg/infusion, 6 months
[2] = system: IL-18
Method: A randomized, double-blind, placebo-controlled study was administered over six cycles. Patients were treated with chlorite 2 mg/kg/infusion, or placebo. Patients were scheduled to receive a total of 20 infusions over 6 cycles during a 25-week (or 6-month) treatment period. […] Levels of biomarkers can be measured with techniques known in the art, e.g., ELISA or flow cytometry.

[3] = system: ALS patients; conditions: for mean decrease in ALSFRS-R score: 3-month off-drug follow-up; for estimated ALSFRS-R slope: patients less than the baseline median wr-CRP; for estimated ALSFRS-R slope decline: patients with baseline wrCRP at or above the median
[4] = system: PD patients; conditions: 1-2 mg/kg/infusion, 6 months
[5] = system: IL-18; conditions: 1-2 mg/kg/infusion, 6 months; for plasma level of IL-18 after treatment: responders
Method: Thirty two patients diagnosed with ALS were treated with chlorite over the course of 6 months. The initial plasma concentration of IL-18 in each patient was recorded and set as the baseline level. Patients were treated with 1-2 mg/kg/infusion chlorite over the course of 6 months. ALSFRS-R scores and IL-18 levels were recorded at different time points during the treatment and compared with the initial concentration.

[6] = system: LPS; conditions: for responders with decreased LPS: at least 6 months of treatment
Method: (§1) A randomized, double-blind, placebo-controlled study was administered over six cycles. Patients were treated with chlorite 2 mg/kg/infusion, or placebo. […] Samples from both responders and non-responders were collected and tested at different time points, e.g., at baseline (pre-dose Cycle 1, Week 1), 1-month, 2-month, 3-month, 4-month, 5-month and 6-month. ALSFRS-R scores and biomarkers levels were measured in responders and non-responders at selected time points and compared to the placebo group.

[7] = system: CD16 expression on CD16 bright monocytes; conditions: 0.2-3.2 mg/kg single dose, 24 hours after dosing
[8] = system: ALS patients; conditions: for ALSFRS-R level over the course of treatment: 1-2 mg/kg/infusion, 6 months
Method: Patients diagnosed with ALS are treated with chlorite over the course of 6 months. Based upon the initial concentration of IL-18 at the baseline or its baseline level, patients are sorted into two groups. Patients with baseline level of IL-18 higher than 60 pg/mL are assigned in IL-18-high group and patients with baseline level of IL-18 lower than 60 pg/mL are assigned in IL-18-low group. Both groups are treated with 1-2 mg/kg/infusion chlorite over the course of 6 months. ALSFRS-R scores and IL-18 levels are recorded at different time points during the treatment and compared between IL-18-high and IL-18-low groups.

[9] = system: ALS patients; conditions: for decline in vital capacity: at least 6 months of treatment
Method: as §1

[10] = system: G93A SOD1 congenic strain of mice; conditions: preliminary studies (McGrath et al., 2010); cited from earlier work
[11] = system: ALS patients; conditions: 1-2 mg/kg/infusion, at least 6 months

sodium chlorite [NP001]
treatment of AD patients [1]: capable of treating AD patients
responders with decreased IL-18 ([2]; high dose responders, at least 6 months of treatment): 80%
responders with decrease in IL-18 ([2]; low dose group responders (8), at least 6 months of treatment): 1 patient
change of plasma IL-18 level from baseline ([2]; non-responders, after 25 weeks): increase
change of plasma IL-18 level from baseline ([2]; responders, after 25 weeks of treatment): decrease
effect on ALSFRS-R slope and change from baseline compared to placebo ([3]; 1 mg/kg): minimal or no effect dose
mean decrease in ALSFRS-R score ([3]; 1 mg/kg): −3.7
estimated ALSFRS-R slope ([3]; 1 mg/kg): −1.38
estimated ALSFRS-R slope decline ([3]; 1 mg/kg): −0.73 points per month
mean decrease in ALSFRS-R score ([3]; 2 mg/kg): −3.3
ALSFRS-R mean slope ([3]; 2 mg/kg, 6 months of treatment (Weeks 1 through 25)): −0.77 points per month
percent change in ALSFRS-R mean slope compared to placebo ([3]; 2 mg/kg, 6 months, concurrent placebo): 13%
improvement in rate of progression compared to placebo ([3]; 2 mg/kg, baseline wrCRP at or above the median, p=0.2): 41%
estimated ALSFRS-R slope ([3]; 2 mg/kg): −0.87
estimated ALSFRS-R slope decline ([3]; 2 mg/kg): −0.55 points per month
slowing of change in ALSFRS-R from baseline ([3]; 2 mg/kg, with addition of matched historical placebo control patients): 21%
improvement in the rate of progression compared to combined placebo controls ([3]; 2 mg/kg, with matched historical placebo controls, p=0.16): 19%
slowing of change in ALSFRS-R from baseline ([3]; 2 mg/kg, without addition of matched historical placebo control patients): 17%
slower functional decline (residual) in mean change in ALSFRS-R compared to placebo ([3]; high dose (2 mg/kg), off-drug follow-up): 11%
treatment of Parkinson's patients [4]: capable of treating Parkinson's patients
number of non-responders ([5]; 32 ALS patients): 22
number of responders ([5]; 32 ALS patients): 10
plasma level of IL-18 after treatment [5]: decreased
plasma level of IL-18 after treatment ([5]; listed as chlorite/NP001): capable of lowering IL-18 plasma level
responders with decreased LPS ([6]; high dose responders): 70%
responders with decreased LPS ([6]; low dose group responders (8)): half
LPS level at week 24 ([6]; non-responders, baseline about 0.35): about 0.2
decrease of LPS level from baseline ([6]; non-responders, week 24): about 40%
LPS level after treatment ([6]; responders, week 24, baseline about 0.3): undetectable level
decrease of LPS level from baseline ([6]; responders, week 24, calculated with minimum detection level about 0.075): about 75%
level of CD16 expression on the CD16 bright subset of monocytes vs placebo [7]: Dose-dependent changes
ALSFRS-R level over the course of treatment ([8]; IL-18-high group (baseline IL-18 higher than 60 pg/mL)): stabilizes
decrease in IL-18 baseline level ([8]; IL-18-high vs IL-18-low group): can only be observed in IL-18-high group
ALSFRS-R level over the course of treatment ([8]; IL-18-low group (baseline IL-18 lower than 60 pg/mL)): no stabilization
disease progression of ALS patients ([9]; 2 mg/kg, patients with high plasma level of IL-18, IL-6, INF-g, and CPR): capable of slowing the disease progression
percentage of patients who did not progress (responders) ([9]; high dose group (2 mg/kg), 6-month treatment period): 27%
percentage of non-progressing patients relative to placebo group ([9]; high dose group vs placebo (11%)): approximately 2.5 times
decline in vital capacity ([9]; non-responders, 1 mg): −17.7+/−17.9
decline in vital capacity ([9]; non-responders, 2 mg): −14.5+/−13.2
ALSFRS-R score over the 6-month treatment period ([9]; responders): remained stable
decline in vital capacity ([9]; responders, 1 mg): −8.95+/−10.1
decline in vital capacity ([9]; responders, 2 mg): −3.76+/−5.7
survival, treated compared to control mice [10]: significant survival improvement
relationship between mean ALSFRS-R levels and mean baseline levels of biomarkers [11]: linear relationship with a positive slope

Source: US20170106017A1 (priority 2014, published 2017)
